# Source: PubChem BioAssay AID1259407 (Chemical Carcinogenesis Research Information System (CCRIS), 2018)
# Active and inactive are the calls of the source. The rule behind the calls is not given here.
# Tested on: CCRIS mutagenicity, Ames/micronucleus/aberration tests
# Experiment: CCRIS mutagenicity studies
# [1] = Test System: AMES SALMONELLA TYPHIMURIUM, Strain/Indicator: TA98, Metabolic Activation: NONE, Method: PREINCUBATION
# [2] = Test System: AMES SALMONELLA TYPHIMURIUM, Strain/Indicator: TA100, Metabolic Activation: NONE, Method: PREINCUBATION
smiles,measurement,setting,value
ClC(Cl)Cl,mutagenic call,"Test System: AMES SALMONELLA TYPHIMURIUM, Strain/Indicator: RSJ100, Metabolic Activation: NONE, Method: PREINCUBATION",inactive; negative
same,mutagenic call,"Test System: AMES SALMONELLA TYPHIMURIUM, Strain/Indicator: RSJ100, Metabolic Activation: RAT LIVER S-9, Method: PREINCUBATION",inactive; negative
same,mutagenic call,[1],inactive; negative
same,mutagenic call,"Test System: AMES SALMONELLA TYPHIMURIUM, Strain/Indicator: TA98, Metabolic Activation: NONE, Method: STANDARD PLATE",active; positive
same,mutagenic call,"Test System: AMES SALMONELLA TYPHIMURIUM, Strain/Indicator: TA98, Metabolic Activation: RAT LIVER S-9, Method: PREINCUBATION",inactive; negative
same,mutagenic call,"Test System: AMES SALMONELLA TYPHIMURIUM, Strain/Indicator: TA98, Metabolic Activation: RAT, LIVER, S-9, AROCLOR 1254, Method: STANDARD PLATE",active; positive
same,mutagenic call,"Test System: AMES SALMONELLA TYPHIMURIUM, Strain/Indicator: TA100, Metabolic Activation: NONE, Method: FLUCTUATION TEST",inactive; negative
same,mutagenic call,[2],inactive; negative
same,mutagenic call,"Test System: AMES SALMONELLA TYPHIMURIUM, Strain/Indicator: TA100, Metabolic Activation: NONE, Method: STANDARD PLATE",active; positive
same,mutagenic call,"Test System: AMES SALMONELLA TYPHIMURIUM, Strain/Indicator: TA100, Metabolic Activation: RAT LIVER S-9, Method: PREINCUBATION",inactive; negative
same,mutagenic call,"Test System: AMES SALMONELLA TYPHIMURIUM, Strain/Indicator: TA100, Metabolic Activation: RAT, LIVER, S-9, AROCLOR 1254, Method: FLUCTUATION TEST",inactive; negative
same,mutagenic call,"Test System: AMES SALMONELLA TYPHIMURIUM, Strain/Indicator: TA100, Metabolic Activation: RAT, LIVER, S-9, AROCLOR 1254, Method: STANDARD PLATE",active; positive
same,mutagenic call,"Test System: AMES SALMONELLA TYPHIMURIUM, Strain/Indicator: TA1535 (GST-), Metabolic Activation: NONE, Method: STANDARD PLATE",inactive; negative
same,mutagenic call,"Test System: AMES SALMONELLA TYPHIMURIUM, Strain/Indicator: TA1535, Metabolic Activation: RAT, LIVER, S-9, AROCLOR 1254, Method: STANDARD PLATE",active; positive
same,mutagenic call,"Test System: AMES SALMONELLA TYPHIMURIUM, Strain/Indicator: TA1537, Metabolic Activation: NONE, Method: STANDARD PLATE",active; positive
same,mutagenic call,"Test System: AMES SALMONELLA TYPHIMURIUM, Strain/Indicator: TA1537, Metabolic Activation: RAT, LIVER, S-9, AROCLOR 1254, Method: STANDARD PLATE",active; positive
same,mutagenic call,"Test System: Ames Salmonella typhimurium, Strain/Indicator: TA98, Metabolic Activation: None, Method: Gas exposure method",inactive; negative
same,mutagenic call,"Test System: Ames Salmonella typhimurium, Strain/Indicator: TA98, Metabolic Activation: Rat, Liver, S9, Sodium phenobarbital and 5,6-benzoflavone (10%), Method: Gas exposure method",inactive; negative
same,mutagenic call,"Test System: Ames Salmonella typhimurium, Strain/Indicator: TA100, Metabolic Activation: None, Method: Gas exposure method",inactive; negative
same,mutagenic call,"Test System: Ames Salmonella typhimurium, Strain/Indicator: TA100, Metabolic Activation: Rat, Liver, S9, Sodium phenobarbital and 5,6-benzoflavone (10%), Method: Gas exposure method",inactive; negative
same,mutagenic call,"Test System: Ames Salmonella typhimurium, Strain/Indicator: TA1535, Metabolic Activation: None, Method: Gas exposure method",inactive; negative
same,mutagenic call,"Test System: Ames Salmonella typhimurium, Strain/Indicator: TA1535, Metabolic Activation: Rat, Liver, S9, Sodium phenobarbital and 5,6-benzoflavone (10%), Method: Gas exposure method",inactive; negative
same,mutagenic call,"Test System: Ames Salmonella typhimurium, Strain/Indicator: TA1537, Metabolic Activation: None, Method: Gas exposure method",inactive; negative
same,mutagenic call,"Test System: Ames Salmonella typhimurium, Strain/Indicator: TA1537, Metabolic Activation: Rat, Liver, S9, Sodium phenobarbital and 5,6-benzoflavone (10%), Method: Gas exposure method",inactive; negative
same,mutagenic call,"Test System: CHINESE HAMSTER V-79, Strain/Indicator: V-79/8-AZAGUANINE, Metabolic Activation: NONE, Method: SUSPENSION/PLATE",active; positive
same,mutagenic call,"Test System: CHINESE HAMSTER V-79, Strain/Indicator: V-79/OUABAIN, Metabolic Activation: NONE, Method: SUSPENSION/PLATE",inactive; negative
same,mutagenic call,"Test System: E. coli, Strain/Indicator: WP2/pKM101, Metabolic Activation: None, Method: Gas exposure method",inactive; negative (two experimental trials)
same,mutagenic call,"Test System: E. coli, Strain/Indicator: WP2/pKM101, Metabolic Activation: Rat, Liver, S9, Sodium phenobarbital and 5,6-benzoflavone (10%) with glutathione, Method: Gas exposure method",inactive; negative (two experimental trials)
same,mutagenic call,"Test System: E. coli, Strain/Indicator: WP2/pKM101, Metabolic Activation: Rat, Liver, S9, Sodium phenobarbital and 5,6-benzoflavone (10%) without glutathione, Method: Gas exposure method",inactive; negative (two experimental trials)
same,mutagenic call,"Test System: E. coli, Strain/Indicator: WP2uvrA/pKM101, Metabolic Activation: None, Method: Gas exposure method",inactive; negative
same,mutagenic call,"Test System: E. coli, Strain/Indicator: WP2uvrA/pKM101, Metabolic Activation: Rat, Liver, S9, Sodium phenobarbital and 5,6-benzoflavone (10%), Method: Gas exposure method",inactive; negative
same,mutagenic call,"Test System: E.COLI, Strain/Indicator: WP2UVRA/PKM101, Metabolic Activation: NONE, Method: GAS EXPOSURE",inactive; negative
same,mutagenic call,"Test System: E.COLI, Strain/Indicator: WP2UVRA/PKM101, Metabolic Activation: RAT LIVER S-9, PHENOBARBITOL AND 5,6-BENZOFLAVONE, GLUTATHIONE-SUPPLEMENTED, Method: GAS EXPOSURE",active; positive
same,mutagenic call,"Test System: E.COLI, Strain/Indicator: WP2UVRA/PKM101, Metabolic Activation: RAT LIVER S-9, PHENOBARBITOL AND 5,6-BENZOFLAVONE, Method: GAS EXPOSURE",inactive; negative
same,mutagenic call,"Test System: MOUSE LYMPHOMA, Strain/Indicator: L5178Y (TK+/TK-), Metabolic Activation: NONE, Method: SUSPENSION/PLATE",inactive; negative
same,mutagenic call,"Test System: MOUSE LYMPHOMA, Strain/Indicator: L5178Y (TK+/TK-), Metabolic Activation: RAT, LIVER, S-9, AROCLOR 1254, Method: SUSPENSION/PLATE",active; positive
same,mutagenic call,"Test System: UDS MOUSE HEPATOCYTES, Strain/Indicator: THY INCORP, Metabolic Activation: NONE, Method: AUTORADIOGRAPHY",inactive; negative
CCCCCCCCC1OC1CCCCCCCC(=O)OCC(CC)CCCC (centres undefined),mutagenic call,"Test System: AMES SALMONELLA TYPHIMURIUM, Strain/Indicator: TA97, Metabolic Activation: HAMSTER, LIVER, S-9, AROCLOR 1254 (10% & 30%), Method: PREINCUBATION",inactive; negative
same,mutagenic call,"Test System: AMES SALMONELLA TYPHIMURIUM, Strain/Indicator: TA97, Metabolic Activation: NONE, Method: PREINCUBATION",inactive; negative
same,mutagenic call,"Test System: AMES SALMONELLA TYPHIMURIUM, Strain/Indicator: TA97, Metabolic Activation: RAT, LIVER, S-9, AROCLOR 1254 (10% & 30%), Method: PREINCUBATION",inactive; negative
same,mutagenic call,"Test System: AMES SALMONELLA TYPHIMURIUM, Strain/Indicator: TA98, Metabolic Activation: HAMSTER, LIVER, S-9, AROCLOR 1254 (10% & 30%), Method: PREINCUBATION",inactive; negative
same,mutagenic call,[1],inactive; negative
same,mutagenic call,"Test System: AMES SALMONELLA TYPHIMURIUM, Strain/Indicator: TA98, Metabolic Activation: RAT, LIVER, S-9, AROCLOR 1254 (10% & 30%), Method: PREINCUBATION",inactive; negative
same,mutagenic call,"Test System: AMES SALMONELLA TYPHIMURIUM, Strain/Indicator: TA100, Metabolic Activation: HAMSTER, LIVER, S-9, AROCLOR 1254 (10% & 30%), Method: PREINCUBATION",inactive; negative
same,mutagenic call,[2],inactive; negative
same,mutagenic call,"Test System: AMES SALMONELLA TYPHIMURIUM, Strain/Indicator: TA100, Metabolic Activation: RAT, LIVER, S-9, AROCLOR 1254 (10% & 30%), Method: PREINCUBATION",inactive; negative
same,mutagenic call,"Test System: AMES SALMONELLA TYPHIMURIUM, Strain/Indicator: TA1535, Metabolic Activation: HAMSTER, LIVER, S-9, AROCLOR 1254 (10% & 30%), Method: PREINCUBATION",inactive; negative
same,mutagenic call,"Test System: AMES SALMONELLA TYPHIMURIUM, Strain/Indicator: TA1535, Metabolic Activation: NONE, Method: PREINCUBATION",inactive; negative
same,mutagenic call,"Test System: AMES SALMONELLA TYPHIMURIUM, Strain/Indicator: TA1535, Metabolic Activation: RAT, LIVER, S-9, AROCLOR 1254 (10% & 30%), Method: PREINCUBATION",inactive; negative
